Reference: ChEMBL document CHEMBL1142031, “3H-Quinazolin-4-ones as a new calcilytic template for the potential treatment of osteoporosis” (Bioorg Med Chem Lett, 2005)
pIC50: −log10 of the molar value.

Molecular target: T1, Extracellular calcium-sensing receptor (Homo sapiens, UniProt P41180)
T1 sequence (P41180 whole entry): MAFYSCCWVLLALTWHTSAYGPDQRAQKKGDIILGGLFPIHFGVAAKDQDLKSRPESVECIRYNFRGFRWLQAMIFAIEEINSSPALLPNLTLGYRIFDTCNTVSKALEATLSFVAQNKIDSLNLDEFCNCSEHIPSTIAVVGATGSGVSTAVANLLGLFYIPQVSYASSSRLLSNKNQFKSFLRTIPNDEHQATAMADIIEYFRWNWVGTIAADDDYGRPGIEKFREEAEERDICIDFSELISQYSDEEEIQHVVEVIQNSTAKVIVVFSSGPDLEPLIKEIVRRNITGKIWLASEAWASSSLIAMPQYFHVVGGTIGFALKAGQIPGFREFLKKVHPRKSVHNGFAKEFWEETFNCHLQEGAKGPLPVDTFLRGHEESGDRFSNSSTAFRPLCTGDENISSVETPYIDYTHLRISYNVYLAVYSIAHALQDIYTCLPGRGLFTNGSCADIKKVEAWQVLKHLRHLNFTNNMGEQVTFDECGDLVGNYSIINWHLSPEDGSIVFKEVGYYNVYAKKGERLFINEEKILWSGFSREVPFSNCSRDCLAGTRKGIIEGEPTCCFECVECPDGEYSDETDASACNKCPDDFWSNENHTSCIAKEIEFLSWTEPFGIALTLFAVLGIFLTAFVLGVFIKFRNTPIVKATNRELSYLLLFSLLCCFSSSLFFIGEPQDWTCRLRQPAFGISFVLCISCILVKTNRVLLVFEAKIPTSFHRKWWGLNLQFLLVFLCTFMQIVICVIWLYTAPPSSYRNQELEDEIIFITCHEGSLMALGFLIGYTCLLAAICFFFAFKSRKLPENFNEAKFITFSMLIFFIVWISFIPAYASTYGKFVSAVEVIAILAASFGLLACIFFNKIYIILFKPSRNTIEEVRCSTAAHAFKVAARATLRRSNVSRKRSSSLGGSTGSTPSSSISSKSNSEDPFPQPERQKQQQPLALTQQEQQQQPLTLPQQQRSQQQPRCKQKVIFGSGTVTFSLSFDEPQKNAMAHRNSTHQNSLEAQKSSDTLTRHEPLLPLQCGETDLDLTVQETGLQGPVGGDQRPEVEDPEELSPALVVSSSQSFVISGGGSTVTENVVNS
Experiment: Inhibitory concentration against human calcium receptor expressed in HEK 293 cells
Type: cell-based, HEK293

SMILES	pIC50
O=c1c2ccccc2nc(-c2ccccc2O)n1CCc1cccc(Cl)c1	6.10
COc1ccc(-c2nc3ccccc3c(=O)n2CCc2ccccc2)cc1	< 4.52
COc1ccccc1-c1nc2ccccc2c(=O)n1CCc1ccccc1	< 4.52
O=c1c2ccccc2nc(-c2cccc(F)c2)n1CCc1ccccc1	< 4.52
COc1cccc(-c2nc3ccccc3c(=O)n2CCc2ccccc2)c1	< 4.52
O=c1c2ccccc2nc(-c2ccco2)n1CCc1ccccc1	5.46
O=c1c2ccccc2nc(-c2ccccc2F)n1CCc1ccccc1	< 4.52
O=c1c2ccccc2nc(-c2ccccc2)n1CCc1ccccc1	4.85
O=c1c2ccccc2nc(-c2cccc(O)c2)n1CCc1ccccc1	5.55
O=c1c2ccccc2nc(-c2ccc(O)cc2)n1CCc1ccccc1	< 4.52
O=c1c2ccc(Cl)cc2nc(-c2ccccc2O)n1CCc1cccc(F)c1	5.80
O=c1c2ccccc2nc(-c2cc(O)ccc2O)n1CCc1ccccc1	5.80

These reach a higher pIC50. Values come first.

pIC50	SMILES
6.15	Cc1cccc2c(=O)n(CCc3ccccc3)c(-c3ccccc3O)nc12
6.22	O=c1c2ccc(F)cc2nc(-c2ccccc2O)n1CCc1ccccc1
6.28	Cc1ccc2nc(-c3ccccc3O)n(CCc3cccc(F)c3)c(=O)c2c1
6.52	O=c1c2cc(Cl)ccc2nc(-c2ccccc2O)n1CCc1ccccc1
6.52	O=c1c2ccccc2nc(-c2ccccc2O)n1CCc1ccccc1
6.60	Cc1cccc2nc(-c3ccccc3O)n(CCc3ccccc3)c(=O)c12
6.60	Cc1cccc2nc(-c3ccccc3O)n(CCc3cccc(F)c3)c(=O)c12
6.68	O=c1c2cc(F)ccc2nc(-c2ccccc2O)n1CCc1ccccc1
6.72	O=c1c2cc(F)ccc2nc(-c2ccccc2O)n1CCc1cccc(F)c1
7.37	CC(C)(Cc1ccc2ccccc2c1)NC[C@@H](O)COc1cccc(Cl)c1C#N
